What follows are molecules tested against Glutamate receptor ionotropic, NMDA 1 (Rattus norvegicus, UniProt P35439) (assay: Compound was evaluated for its ability to displace [3H]TCP from PCP N-methyl-D-aspartate glutamate receptor in rat brain).
Format: tissue-based
Molecule c1ccc([C@]2(N3CCCCC3)C[C@H]3C[C@H]3C2)cc1 has a Ki of 644 nM.
Work on c1ccc([C@@]2(N3CCCCC3)C[C@H]3C[C@H]3C2)cc1 yielded a Ki of 711 nM.
Work on c1ccc([C@]2(N3CCCCC3)CC[C@@H]3C[C@@H]32)cc1 yielded a Ki of 29000 nM.
With c1ccc([C@@]2(N3CCCCC3)CC[C@H]3C[C@H]32)cc1 the Ki was 8220 nM.
With c1ccc([C@]2(N3CCCCC3)CC[C@H]3C[C@H]32)cc1 (racemic) the Ki was 582 nM.
c1ccc(C2(N3CCCCC3)CCCCC2)cc1 [PHENCYCLIDINE] showed a Ki of 64.5 nM.

— ChEMBL document CHEMBL1126186 (J Med Chem, 1992)
